# pIC50: −log10 of the molar value. Read-outs that look alike come from different tables or passages of the source.
# Test system: panel of nearly 500 cancer cell lines
# Test: Cancer Cell Line Encyclopedia profiling, 3-day CellTiter-Glo
# Format: cell-based
# Settings: read-out: IC50
compound,measurement,setting,value
CC(=O)c1c(C)c2cnc(Nc3ccc(N4CCNCC4)cn3)nc2n(C2CCCC2)c1=O [Palbociblib],pIC50,22rv1 (prostate),< 5.10
same,pIC50,639v (urinary_tract),< 5.10
same,pIC50,769p (kidney),5.17
same,pIC50,5637 (urinary_tract),< 5.10
same,pIC50,8305c (thyroid),5.27
same,pIC50,8505c (thyroid),< 5.10
same,pIC50,a172 (central_nervous_system),< 5.10
same,pIC50,a204 (soft_tissue),< 5.10
same,pIC50,a253 (salivary_gland),< 5.10
same,pIC50,a375 (skin),< 5.10
same,pIC50,a549 (lung),< 5.10
same,pIC50,a673 (bone),< 5.10
same,pIC50,a2058 (skin),< 5.10
same,pIC50,a2780 (ovary),< 5.10
same,pIC50,amo1 (haematopoietic_and_lymphoid_tissue),< 5.10
same,pIC50,an3ca (endometrium),5.15
same,pIC50,aspc1 (pancreas),< 5.10
same,pIC50,au565 (breast),5.12
same,pIC50,az521 (stomach),< 5.10
same,pIC50,bdcm (haematopoietic_and_lymphoid_tissue),5.72
same,pIC50,bftc909 (kidney),< 5.10
same,pIC50,bgc823 (stomach),< 5.10
same,pIC50,bl41 (haematopoietic_and_lymphoid_tissue),< 5.10
same,pIC50,bl70 (haematopoietic_and_lymphoid_tissue),5.34
same,pIC50,bt20 (breast),< 5.10
same,pIC50,bt474 (breast),< 5.10
same,pIC50,bt549 (breast),< 5.10
same,pIC50,c2bbe1 (large_intestine),< 5.10
same,pIC50,c3a (liver),< 5.10
same,pIC50,c32 (skin),< 5.10
same,pIC50,caki2 (kidney),< 5.10
same,pIC50,cal27 (upper_aerodigestive_tract),< 5.10
same,pIC50,cal78 (bone),< 5.10
same,pIC50,cal851 (breast),< 5.10
same,pIC50,calu1 (lung),< 5.10
same,pIC50,calu3 (lung),< 5.10
same,pIC50,cama1 (breast),< 5.10
same,pIC50,capan2 (pancreas),< 5.10
same,pIC50,cas1 (central_nervous_system),< 5.10
same,pIC50,"cell line tyknu, ovary",< 5.10
same,pIC50,"cell line u87mg, central_nervous_system",< 5.10
same,pIC50,"cell line u118mg, central_nervous_system",< 5.10
same,pIC50,"cell line u2os, bone",< 5.10
same,pIC50,"cell line u937, haematopoietic_and_lymphoid_tissue",< 5.10
same,pIC50,"cell line uacc812, breast",< 5.10
same,pIC50,"cell line umuc3, urinary_tract",< 5.10
same,pIC50,"cell line vmrclcd, lung",5.73
same,pIC50,"cell line vmrcrcw, kidney",< 5.10
same,pIC50,"cell line vmrcrcz, kidney",< 5.10
same,pIC50,"cell line ykg1, central_nervous_system",5.13
same,pIC50,"cell line zr7530, breast",< 5.10
same,pIC50,chl1 (skin),< 5.10
same,pIC50,ci1 (haematopoietic_and_lymphoid_tissue),5.19
same,pIC50,cmk (haematopoietic_and_lymphoid_tissue),5.26
same,pIC50,colo201 (large_intestine),5.83
same,pIC50,colo205 (large_intestine),5.14
same,pIC50,colo320 (large_intestine),5.17
same,pIC50,colo679 (skin),< 5.10
same,pIC50,corl23 (lung),< 5.10
same,pIC50,corl23cpr (lung),< 5.10
same,pIC50,cov318 (ovary),< 5.10
same,pIC50,cov504 (ovary),< 5.10
same,pIC50,daoy (central_nervous_system),< 5.10
same,pIC50,dbtrg05mg (central_nervous_system),< 5.10
same,pIC50,detroit562 (upper_aerodigestive_tract),5.50
same,pIC50,dkmg (central_nervous_system),< 5.10
same,pIC50,dms114 (lung),< 5.10
same,pIC50,dov13 (ovary),< 5.10
same,pIC50,du145 (prostate),< 5.10
same,pIC50,eb1 (haematopoietic_and_lymphoid_tissue),< 5.10
same,pIC50,eb2 (haematopoietic_and_lymphoid_tissue),< 5.10
same,pIC50,ebc1 (lung),< 5.10
same,pIC50,efe184 (endometrium),< 5.10
same,pIC50,efm19 (breast),< 5.10
same,pIC50,efo21 (ovary),< 5.10
same,pIC50,efo27 (ovary),< 5.10
same,pIC50,en (endometrium),< 5.10
same,pIC50,es2 (ovary),< 5.10
same,pIC50,fadu (upper_aerodigestive_tract),< 5.10
same,pIC50,fuov1 (ovary),< 5.10
same,pIC50,g361 (skin),< 5.10
same,pIC50,g401 (soft_tissue),< 5.10
same,pIC50,gb1 (central_nervous_system),< 5.10
same,pIC50,gciy (stomach),< 5.10
same,pIC50,gct (soft_tissue),5.39
same,pIC50,glc82 (lung),< 5.10
same,pIC50,gms10 (central_nervous_system),< 5.10
same,pIC50,h4 (central_nervous_system),< 5.10
same,pIC50,hcc15 (lung),< 5.10
same,pIC50,hcc56 (large_intestine),< 5.10
same,pIC50,hcc70 (breast),< 5.10
same,pIC50,hcc78 (lung),< 5.10
same,pIC50,hcc1187 (breast),< 5.10
same,pIC50,hcc1569 (breast),< 5.10
same,pIC50,hcc1806 (breast),< 5.10
same,pIC50,hcc1954 (breast),5.60
same,pIC50,hcc2935 (lung),< 5.10
same,pIC50,hcc4006 (lung),< 5.10
same,pIC50,hct15 (large_intestine),< 5.10
same,pIC50,hct116 (large_intestine),< 5.10
same,pIC50,hec1a (endometrium),< 5.10
same,pIC50,hec1b (endometrium),5.30
same,pIC50,hec59 (endometrium),< 5.10
same,pIC50,hec151 (endometrium),< 5.10
same,pIC50,hec251 (endometrium),< 5.10
same,pIC50,hec265 (endometrium),< 5.10
same,pIC50,hel9217 (haematopoietic_and_lymphoid_tissue),< 5.10
same,pIC50,hep3b217 (liver),< 5.10
same,pIC50,hepg2 (liver),< 5.10
same,pIC50,heya8 (ovary),< 5.10
same,pIC50,hgc27 (stomach),5.76
same,pIC50,hh (haematopoietic_and_lymphoid_tissue),< 5.10
same,pIC50,hle (liver),< 5.10
same,pIC50,hlf (liver),< 5.10
same,pIC50,hmc18 (breast),< 5.10
same,pIC50,hmcb (skin),< 5.10
same,pIC50,hos (bone),< 5.10
same,pIC50,hpac (pancreas),< 5.10
same,pIC50,hs229t (lung),< 5.10
same,pIC50,hs294t (skin),< 5.10
same,pIC50,hs578t (breast),< 5.10
same,pIC50,hs683 (central_nervous_system),< 5.10
same,pIC50,hs695t (skin),< 5.10
same,pIC50,hs739t (breast),< 5.10
same,pIC50,hs746t (stomach),< 5.10
same,pIC50,hs766t (pancreas),< 5.10
same,pIC50,hs840t (upper_aerodigestive_tract),< 5.10
same,pIC50,hs852t (skin),< 5.10
same,pIC50,hs895t (skin),6.35
same,pIC50,hs936t (skin),< 5.10
same,pIC50,hs939t (skin),< 5.10
same,pIC50,hs944t (skin),< 5.10
same,pIC50,hsc2 (upper_aerodigestive_tract),< 5.10
same,pIC50,ht29 (large_intestine),< 5.10
same,pIC50,ht144 (skin),< 5.10
same,pIC50,ht1080 (soft_tissue),< 5.10
same,pIC50,ht1197 (urinary_tract),< 5.10
same,pIC50,ht1376 (urinary_tract),< 5.10
same,pIC50,ht (haematopoietic_and_lymphoid_tissue),< 5.10
same,pIC50,hucct1 (biliary_tract),< 5.10
same,pIC50,huh1 (liver),< 5.10
same,pIC50,hupt3 (pancreas),< 5.10
same,pIC50,hupt4 (pancreas),< 5.10
same,pIC50,hut78 (haematopoietic_and_lymphoid_tissue),< 5.10
same,pIC50,ialm (lung),< 5.10
same,pIC50,igr37 (skin),< 5.10
same,pIC50,igr39 (skin),< 5.10
same,pIC50,igrov1 (ovary),< 5.10
same,pIC50,imr32 (autonomic_ganglia),< 5.10
same,pIC50,ipc298 (skin),< 5.10
same,pIC50,istmes1 (pleura),< 5.10
same,pIC50,istmes2 (pleura),6.37
same,pIC50,j82 (urinary_tract),< 5.10
same,pIC50,jhh2 (liver),< 5.10
same,pIC50,jhh4 (liver),< 5.10
same,pIC50,jhh6 (liver),< 5.10
same,pIC50,jhos2 (ovary),< 5.10
same,pIC50,jhos4 (ovary),< 5.10
same,pIC50,jm1 (haematopoietic_and_lymphoid_tissue),< 5.10
same,pIC50,jmsu1 (urinary_tract),< 5.10
same,pIC50,k029ax (skin),< 5.10
same,pIC50,kals1 (central_nervous_system),< 5.10
same,pIC50,karpas299 (haematopoietic_and_lymphoid_tissue),5.13
same,pIC50,karpas422 (haematopoietic_and_lymphoid_tissue),< 5.10
same,pIC50,ke39 (stomach),5.45
same,pIC50,ke97 (haematopoietic_and_lymphoid_tissue),5.59
same,pIC50,kg1 (haematopoietic_and_lymphoid_tissue),< 5.10
same,pIC50,kle (endometrium),< 5.10
same,pIC50,kmbc2 (urinary_tract),< 5.10
same,pIC50,kmrc1 (kidney),< 5.10
same,pIC50,kms12bm (haematopoietic_and_lymphoid_tissue),< 5.10
same,pIC50,kms26 (haematopoietic_and_lymphoid_tissue),5.78
same,pIC50,kns42 (central_nervous_system),< 5.10
same,pIC50,kns60 (central_nervous_system),< 5.10
same,pIC50,kp1n (pancreas),< 5.10
same,pIC50,kp1nl (pancreas),< 5.10
same,pIC50,kp2 (pancreas),< 5.10
same,pIC50,kp3 (pancreas),< 5.10
same,pIC50,kp4 (pancreas),< 5.10
same,pIC50,ku812 (haematopoietic_and_lymphoid_tissue),5.20
same,pIC50,kyse30 (oesophagus),< 5.10
same,pIC50,kyse410 (oesophagus),< 5.10
same,pIC50,kyse520 (oesophagus),< 5.10
same,pIC50,l33 (pancreas),< 5.10
same,pIC50,lc1sqsf (lung),< 5.10
same,pIC50,lclc103h (lung),< 5.10
same,pIC50,ln18 (central_nervous_system),< 5.10
same,pIC50,ln229 (central_nervous_system),< 5.10
same,pIC50,lounh91 (lung),< 5.10
